These results are taken from patent EP0293133A2, “Microorganisms and processes for the manufacture of antifungal tri-yne carbonates” (Merck & Co., Inc., priority 1987, dated 1988).

What all share (assay): agar dilution assay, antifungal activity (MIC)
What all share (assay type): cell-based

One experiment relates to Candida albicans. The conditions noted are these: 48 h, 28°C, read-out: MINIMUM INHIBITORY CONCENTRATION
The procedure: (§1) The antifungal activity of the compound of formula I was determined by an agar dilution assay as follows: […]
(§2) The compound of formula I was added to cooled, molten yeast nitrogen base plus glucose agar (1.0 ml of drug plus 9.0 ml agar). Appropriate solvent and media controls (drug free) also were prepared. Prepared plates were stored in the dark at room temperature overnight prior to use.
(§3) The yeast cultures, maintained in yeast maltose (YM) broth, were transferred to fresh YM medium and incubated overnight at 37°C with shaking (250 rpm). After incubation, each culture was diluted in sterile saline to yield final concentrations of 3 x 10⁵ to 3 x 10⁶ colony forming units (CFU)/ml. The isolates of Aspergillus and Penicillium were maintained on potato dextrose agar slants and spore suspensions made following vigourous shaking with sterile glass beads. The spore preparations were used as the inocula for these three filamentous fungi.
(§4) Each prepared plate was inoculated with 21 yeast-like and filamentous fungi using a Denley Multipoint Inoculator (Denley, Sussex, England). The inoculator delivers approximately 0.001 ml to the agar surface resulting in inoculation of from 3 x 10² to 3 x 10³ CFUs. The plates were incubated at 28°C for 48 hours. The minimum inhibitory concentrations (MICs) were recorded as the lowest concentration of drug showing no growth or less than three CFU/spot.

The next experiment has as its system A. flavus. The conditions noted are these: Aspergillus flavus; A. flavus MF0383; spore inoculum, yeast nitrogen base plus glucose agar, 28°C, 48 hours; read-out: MINIMUM INHIBITORY CONCENTRATION
The method, then: as §1, §2, §3, §4

Another experiment concerns Ca. parapsilosis. The following applies: Lodderomyces parapsilosis, 48 h, 28°C, read-out: MINIMUM INHIBITORY CONCENTRATION
The method, then:
as §1, §2, §3, §4

The next experiment relates to Ca. tropicalis. The following applies: Candida tropicalis, 48 h, 28°C, read-out: MINIMUM INHIBITORY CONCENTRATION
The method, then:
as §1, §2, §3, §4

The test system of a further experiment is Ca. guilliermondii. The conditions noted are these: Meyerozyma guilliermondii; Ca. guilliermondii MY1019; yeast nitrogen base plus glucose agar, 28°C, 48 hours; read-out: MINIMUM INHIBITORY CONCENTRATION
The method, then:
as §1, §2, §3, §4

In another experiment the test system is Sac. cerevisiae. The following applies: Saccharomyces cerevisiae; Sac. cerevisiae MY1027; yeast nitrogen base plus glucose agar, 28°C, 48 hours; read-out: MINIMUM INHIBITORY CONCENTRATION
The method, then: as §1, §2, §3, §4

Another experiment relates to Crypotococcus neoformans. The following applies: yeast nitrogen base plus glucose agar, 28°C, 48 hours, read-out: MINIMUM INHIBITORY CONCENTRATION
The method, then: as §1, §2, §3, §4

The subject of another experiment is Ca. stellatoidea. The following applies: Candida albicans; Ca. stellatoidea MY1018; yeast nitrogen base plus glucose agar, 28°C, 48 hours; read-out: MINIMUM INHIBITORY CONCENTRATION
The procedure: as §1, §2, §3, §4

For a further experiment, the system named is Torulopsis glabrata. The following applies: Nakaseomyces glabratus; Torulopsis glabrata MY1059; yeast nitrogen base plus glucose agar, 28°C, 48 hours; read-out: MINIMUM INHIBITORY CONCENTRATION
The method, then: as §1, §2, §3, §4

Another experiment relates to Aspergillus fumigatus. The following applies: Aspergillus fumigatus MF4839; spore inoculum, yeast nitrogen base plus glucose agar, 28°C, 48 hours; read-out: MINIMUM INHIBITORY CONCENTRATION
The procedure:
as §1, §2, §3, §4

For a further experiment, the system named is Penicillium italicum. The conditions noted are these: Penicillium italicum MF2819; spore inoculum, yeast nitrogen base plus glucose agar, 28°C, 48 hours; read-out: MINIMUM INHIBITORY CONCENTRATION
The procedure: as §1, §2, §3, §4

A further experiment concerns Ca. krusei. The following applies: Pichia kudriavzevii; Ca. krusei MY1020; yeast nitrogen base plus glucose agar, 28°C, 48 hours; read-out: MINIMUM INHIBITORY CONCENTRATION
The method, then: as §1, §2, §3, §4

Another experiment relates to Ca. pseudotropicallis. The conditions noted are these: Ca. pseudotropicallis MY1040; yeast nitrogen base plus glucose agar, 28°C, 48 hours; read-out: MINIMUM INHIBITORY CONCENTRATION
The procedure:
as §1, §2, §3, §4

A further experiment has as its system Ca. rugosa. The conditions noted are these: Diutina rugosa; Ca. rugosa MY1022; yeast nitrogen base plus glucose agar, 28°C, 48 hours; read-out: MINIMUM INHIBITORY CONCENTRATION
The method, then:
as §1, §2, §3, §4

Like-named read-outs stand apart in the source and are kept apart here.

For `C#CC#CC#CC(O)C1OC(=O)OC1CCCCCCC(=O)O` (stereo not drawn) [compound of formula I], the MIC with Candida albicans (Ca. albicans MY0992, yeast nitrogen base plus glucose agar) is 7.5 µg/mL; with Candida albicans (Ca. albicans MY1013, yeast nitrogen base plus glucose agar) it was 0.47 µg/mL; with Candida albicans (Ca. albicans MY1029, yeast nitrogen base plus glucose agar), 0.47 µg/mL; with Candida albicans (Ca. albicans MY1055, yeast nitrogen base plus glucose agar), 0.47 µg/mL; with Candida albicans (Candida albicans MY1058, yeast nitrogen base plus glucose agar), 0.47 µg/mL; in the experiment on A. flavus, greater than 30 µg/mL. Also, the MIC in the experiment on Ca. parapsilosis (Ca. parapsilosis MY1009, yeast nitrogen base plus glucose agar) amounted to 1.88 µg/mL; with Ca. parapsilosis (Ca. parapsilosis MY1010, yeast nitrogen base plus glucose agar), 0.47 µg/mL; in the experiment with Ca. tropicalis (Ca. tropicalis MY1011, yeast nitrogen base plus glucose agar), 15 µg/mL; with Ca. tropicalis (Ca. tropicalis MY1012, yeast nitrogen base plus glucose agar), 1.88 µg/mL; in the experiment with Ca. guilliermondii it was 7.5 µg/mL; in the experiment on Sac. cerevisiae, 1.88 µg/mL. Moreover, the MIC with Crypotococcus neoformans (Cr. neoformans MY1146) was 3.75 µg/mL; in the experiment on Crypotococcus neoformans (Crypotococcus neoformans MY1051), 1.88 µg/mL; with Ca. stellatoidea, 7.5 µg/mL; with Torulopsis glabrata, 1.88 µg/mL; in the experiment on Aspergillus fumigatus it was greater than 30 µg/mL; with Penicillium italicum, 7.5 µg/mL. Also, the results for the MIC in the experiment on Ca. krusei, in the experiment on Ca. pseudotropicallis and in the experiment with Ca. rugosa were 30 µg/mL, 0.94 µg/mL and 7.5 µg/mL, respectively.
